Source: PubChem BioAssay (NCI)
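A five-concentration, 48-hour dose response in 96-well plates underlies each endpoint, interpolated linearly between surrounding concentrations. GI50 marks 50% less growth. The concentration for full growth arrest is given as TGI.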

Assays:
Test in all cases: growth of human tumour cells (NCI), 48 h
NCI-H23 lung = test system: NCI-H23 lung
NCI-H522 lung = test system: NCI-H522 lung
HCC-2998 colon = test system: HCC-2998 colon
K-562 leukemia = test system: K-562 leukemia
SK-OV-3 ovarian = test system: SK-OV-3 ovarian
HS 578T breast = test system: HS 578T breast
OVCAR-8 ovarian = test system: OVCAR-8 ovarian
TK-10 renal = test system: TK-10 renal
EKVX NSCLC = test system: EKVX NSCLC
SF-539 CNS = test system: SF-539 CNS
SNB-19 CNS = test system: SNB-19 CNS
NCI-H226 lung = test system: NCI-H226 lung
CAKI-1 renal = test system: CAKI-1 renal
MOLT-4 leukemia = test system: MOLT-4 leukemia
SNB-75 CNS = test system: SNB-75 CNS
U251 CNS = test system: U251 CNS
A549 NSCLC = test system: A549 NSCLC
UO-31 renal = test system: UO-31 renal
T-47D breast = test system: T-47D breast
HL-60(TB) leukemia = test system: HL-60(TB) leukemia
HT29 colon = test system: HT29 colon
786-0 renal = test system: 786-0 renal
OVCAR-4 ovarian = test system: OVCAR-4 ovarian
M14 melanoma = test system: M14 melanoma
SK-MEL-2 melanoma = test system: SK-MEL-2 melanoma
SF-295 CNS = test system: SF-295 CNS
DU-145 prostate = test system: DU-145 prostate
CCRF-CEM leukemia = test system: CCRF-CEM leukemia
UACC-62 melanoma = test system: UACC-62 melanoma

COc1cc(OC)c(/C=C/S(=O)(=O)Cc2ccc(OC)c(NC(=O)CCC(=O)NO)c2)c(OC)c1
GI50 (NCI-H23 lung): 49.9 nM
TGI (NCI-H23 lung): > 100000 nM
GI50 (NCI-H522 lung): < 12.6 nM
GI50 (HCC-2998 colon): 34.5 nM
TGI (HCC-2998 colon): > 100000 nM
GI50 (K-562 leukemia): < 15.4 nM
TGI (K-562 leukemia): > 100000 nM
GI50 (SK-OV-3 ovarian): 1170 nM
TGI (SK-OV-3 ovarian): > 100000 nM
GI50 (HS 578T breast): 23 nM
TGI (HS 578T breast): > 100000 nM
GI50 (OVCAR-8 ovarian): 41.2 nM
TGI (OVCAR-8 ovarian): > 100000 nM
GI50 (TK-10 renal): > 100000 nM
TGI (TK-10 renal): > 100000 nM
GI50 (EKVX NSCLC): 57.3 nM
TGI (EKVX NSCLC): > 100000 nM
GI50 (SF-539 CNS): 26.1 nM
TGI (SF-539 CNS): 432 nM
GI50 (SNB-19 CNS): 46.3 nM
TGI (SNB-19 CNS): > 100000 nM
GI50 (NCI-H226 lung): 99.5 nM
TGI (NCI-H226 lung): > 100000 nM
GI50 (CAKI-1 renal): < 15.9 nM
TGI (CAKI-1 renal): > 100000 nM
GI50 (MOLT-4 leukemia): 46.7 nM
TGI (MOLT-4 leukemia): > 100000 nM
GI50 (SNB-75 CNS): 18.4 nM
TGI (SNB-75 CNS): 3680 nM
GI50 (U251 CNS): 38.7 nM
TGI (U251 CNS): > 100000 nM
GI50 (A549 NSCLC): 39.7 nM
TGI (A549 NSCLC): > 100000 nM
GI50 (UO-31 renal): 107 nM
TGI (UO-31 renal): > 100000 nM
GI50 (T-47D breast): 30600 nM
TGI (T-47D breast): > 100000 nM
GI50 (HL-60(TB) leukemia): 26.2 nM
TGI (HL-60(TB) leukemia): 88 nM
GI50 (HT29 colon): 38.7 nM
TGI (HT29 colon): > 100000 nM
GI50 (786-0 renal): 43.6 nM
TGI (786-0 renal): > 100000 nM
TGI (OVCAR-4 ovarian): > 100000 nM
GI50 (M14 melanoma): 18.8 nM
TGI (M14 melanoma): > 100000 nM
TGI (SK-MEL-2 melanoma): > 37200 nM
GI50 (SF-295 CNS): 14.4 nM
TGI (SF-295 CNS): > 100000 nM
GI50 (DU-145 prostate): 45.1 nM
TGI (DU-145 prostate): > 100000 nM
GI50 (CCRF-CEM leukemia): 35.3 nM
TGI (CCRF-CEM leukemia): > 100000 nM
GI50 (UACC-62 melanoma): 19.8 nM
